According to publication PMC6127322, “Novel Imidazole and Methoxybenzylamine Growth Inhibitors Affecting Salmonella Cell Envelope Integrity and its Persistence in Chickens” (Scientific Reports, 2018):
≈ marks a conversion by molar mass, not a printed value. Like-named read-outs stand apart in the source and are kept apart here. Marks after values point to notes of the source that are not given here.

Legend:
[1] = test system: S. Typhimurium LT2 wild-type (WT) strain; assay: Dose-response assay (MIC and MBC determination) in M9 broth; format: cell-based, Salmonella enterica subsp. enterica serovar Typhimurium; settings: 12 hrs at 37 °C, read-out: MBC (minimal bactericidal concentration)
Procedure: Typhimurium using high-throughput screening assay in a 96-well plate format. […] Plates were incubated in a Sunrise Tecan kinetic microplate reader for 12 hrs at 37 °C and the optical density (OD) was measured at 600 nm. The percentage of growth inhibition was calculated as: […]. Cultures from wells showing no turbidimetric increase were transferred onto a XLT4 agar plate. Plates were incubated at 37 °C for 36 hrs. […] S. Typhimurium was challenged with a determined concentration of SM as described in the primary screen.

Salmonella Enteritidis = assay: Dose-response assay (MBC) on Salmonella serovars; format: cell-based; settings: Salmonella enterica; serovar Enteritidis, M9 broth
Salmonella Heidelberg = assay: Dose-response assay (MBC) on Salmonella serovars; format: cell-based; settings: Salmonella enterica; serovar Heidelberg, M9 broth
Salmonella Javiana = assay: Dose-response assay (MBC) on Salmonella serovars; format: cell-based, Salmonella enterica
Salmonella Saint-Paul = assay: Dose-response assay (MBC) on Salmonella serovars; format: cell-based, Salmonella enterica; settings: serovar Saint-Paul, M9 broth
[2] = test system: Salmonella enterica subsp. enterica serotype Typhimurium; assay: Checkerboard assay, SM and antibiotic combinations; format: cell-based; settings: for MBC: Salmonella enterica, TYPHIMURIUM, SM alone, read-out: SM MBCalone; for Reduction of cefeprime MBC / Reduction of meropenem MBC: sub-lethal concentration of SM
Procedure: The potentiation effect of several antibiotics, commonly used to control Salmonella, was studied in a checkerboard assay. […] The MBC of each antibiotic was determined in M9 medium prior the experiment using a dose-response assay, as described above. For potentiation studies, 100 μl of a S. […] The MBC of each antibiotic was determined as described in the dose-response assay. Bacteria challenged with SMs or antibiotics alone at the same concentrations were used to determine the antibiotic-SM combination effects. […] Further, the bacterial suspension was plated on an agar medium and incubated at 37 °C for 36 hrs. The antibiotic-SM combination effect was calculated based on the determination of the fractional bactericidal concentration (FBC) as previously described[66],[67].

[3] = test system: biofilm embedded S. Typhimurium; assay: MBEC high-throughput assay on biofilm; format: cell-based, Salmonella enterica subsp. enterica serovar Typhimurium; settings: 18 hrs incubation; for MBC on biofilm embedded Salmonella: M9 medium; for Cidal concentration on biofilm relative to planktonic MBC: compared to planktonic dose-response in parallel
Procedure: The antimicrobial efficacy of the four SMs was tested on biofilm embedded S. Typhimurium as previously described. Briefly, 150 µl of an overnight suspension of S. Typhimurium normalized to 0.05 OD600 in LB medium was transferred into each well of a sterile, non-treated, flat bottom 96-well plate. The plate was covered using the lid containing the pegs (Innovotech), sealed with parafilm, and incubated for 36 hrs at 37 °C. […] The plate was incubated for 18 hrs at 37 °C, 110 rpm in the dark. After incubation, the pegs were transferred to a new 96-well plate containing 200 µl of sterile water and sonicated for 60 min at room temperature (Aquasonic model 50HT, VWR). Removal of the biofilm was confirmed by crystal violet staining. The supernatant was ten-fold serial diluted, plated on an agar plate, and incubated at 37 °C for 36 hrs. The lowest SM concentration giving a complete clearance was considered as MBEC. […] In parallel to this experiment, a dose-response assay with planktonic cells was conducted as described above.

S. Typhimurium = format: cell-based, Salmonella enterica subsp. enterica serovar Typhimurium; settings: lethal dose (2X MBC) on solid medium or repeated exposure to sub-lethal dose (0.75X MBC) in liquid medium
[4] = test system: S. Typhimurium membrane permeability; assay: Crystal violet uptake assay; format: cell-based, Salmonella enterica subsp. enterica serotype Typhimurium; settings: 1 hr, lethal dose (5X MBC); for Reduction of crystal violet uptake: compared to 1% DMSO control
Procedure: Figure S2. Estimation of the membrane permeability of Salmonella enterica subsp. enterica serotype Typhimurium strain JSG626 after small molecule (SM) treatment. (A) Crystal […]
Treatments were normalized based on 10 μg/ml of crystal violet solution (no uptake […]
different than the 1% DMSO control (P<0.01); n= 9. (B) Loss of 260 nm absorbing materials from S. Typhimurium cell content. 260 nm absorbing materials were measured […]
standard deviation; *: the amount of 260 nm absorbing material in supernatant was […]
Both experiments were performed as previously described (1).
(also on this page, place not known: updtae (%) (ng/µl) Crystal violet 260 nm absorbing material) […]

chicken red blood cells = assay: Hemolytic activity; format: cell-based; settings: chicken RBCs, 200 µM, 1 hr
Procedure: (§1) Briefly, 200 µl of 10% sheep or chicken RBC suspension was incubated with 1 µl of SMs (200 µM) for 1 hr at 37 °C in a 96-well plate. After incubation, the plate was centrifuged at 3700 X g for 5 min at 4 °C and then placed on ice for five min. One hundred microliters of the supernatant were transferred into a fresh 96-well plate, and the OD was measured at 540 nm. One percent DMSO and 0.1% Triton-100X were used as negative and positive controls, respectively. Percentage hemolysis was calculated as: [(OD540 SM − OD540 DMSO)/(OD540 1X triton − OD540 PBS)] × 100.

sheep red blood cells = assay: Hemolytic activity; format: cell-based; settings: sheep RBCs, 200 µM, 1 hr
Procedure: as §1

[5] = test system: S. Typhimurium in Caco-2 cells; assay: S. Typhimurium survival in infected cell lines; format: cell-based, Salmonella enterica subsp. enterica serotype Typhimurium; settings: Salmonella enterica, internalized S. Typhimurium, 24 hrs; for IC50: estimated
Procedure: (§2) The ability of four SMs to clear S. Typhimurium was evaluated using three cell lines (Caco-2 cells, HD11, and THP-1 cells) as previously described. A multiplicity of infection (MOI) of 10 was used. Infected cells were treated with 1 µl of SMs (final concentration ranged between 100 µM and 6.25 µM) and incubated at 37 °C for 24 hrs in humidified, 5% CO2 incubator. Following incubation, cells were washed once with 1X PBS, lysed with 0.1% Triton-100X, serial ten-fold diluted in 1X PBS, and plated on agar plate. Plates were incubated at 37 °C for 24 hrs to determine the intracellular bacteria. Cells not infected and not treated, and cells infected and treated with 2% DMSO were used as controls.

[6] = test system: S. Typhimurium in HD11 cells; assay: S. Typhimurium survival in infected cell lines; format: cell-based, Salmonella enterica subsp. enterica serotype Typhimurium; settings: Salmonella enterica, internalized S. Typhimurium, 24 hrs; for IC50: estimated
Procedure: as §2

[7] = test system: S. Typhimurium in THP-1 cells; assay: S. Typhimurium survival in infected cell lines; format: cell-based, Salmonella enterica subsp. enterica serotype Typhimurium; settings: Salmonella enterica, internalized S. Typhimurium, 24 hrs; for IC50: estimated
Procedure: as §2

[8] = SM combined with nalidixic acid

CC1CCC(C(C)C)C(OC(=O)Cn2c[n+](CC(=O)OC3CC(C)CCC3C(C)C)c3ccccc32)C1 (stereo not shown) [SM1]
MBC ([1]; Salmonella enterica): 50 µM
MBC (Salmonella Enteritidis): 100 µM
MBC (Salmonella Heidelberg): 100 µM
MBC (Salmonella Javiana): 100 µM
MBC (Salmonella Saint-Paul): 100 µM
SM MBCcombined ([2]; SM combined with cefotaxime): 50 µM
SM MBCcombined ([2]; SM combined with erythromycin): 50 µM
MBC [2]: 50 µM
Reduction of cefeprime MBC [2]: at least 5 fold
Reduction of meropenem MBC [2]: 5 fold
MBC on biofilm embedded Salmonella [3]: 40 µM
Cidal concentration on biofilm relative to planktonic MBC [3]: 0.8 X MBC
Resistance development of S. Typhimurium (S. Typhimurium): no resistance was observed
Reduction of crystal violet uptake [4]: 1.88 fold
Hemolytic activity (chicken red blood cells): > 50%
Hemolytic activity (sheep red blood cells): > 50%
MBC [5]: 25 µM
IC50 [5]: 12.5 to 25 µM
MBC [6]: 6.25 µM
IC50 [6]: < 3.21 µM
MBC [7]: 100 µM
IC50 [7]: < 50 µM

CCCCCCCCCCCCCCCC[n+]1ccn(CC#N)c1 [SM3]
MBC [1]: 25 µM
MBC ([1]; Salmonella enterica): 25 µM
MBC (Salmonella Enteritidis): 25 µM
MBC (Salmonella Heidelberg): 50 µM
MBC (Salmonella Javiana): 25 µM
MBC (Salmonella Saint-Paul): 50 µM
SM MBCcombined ([2]; SM combined with cefotaxime): 25^c μM
SM MBCcombined ([2]; SM combined with erythromycin): 25^c μM
SM MBCcombined [2, 8]: 25^c μM
MBC [2]: 25 µM
Reduction of cefeprime MBC [2]: at least 5 fold
Reduction of meropenem MBC [2]: 2.5 fold
MBC on biofilm embedded Salmonella [3]: 15 µM
Cidal concentration on biofilm relative to planktonic MBC [3]: 0.6 X MBC
Resistance development of S. Typhimurium (S. Typhimurium): no resistance was observed
Reduction of crystal violet uptake [4]: 4.46 fold
Hemolytic activity (chicken red blood cells): below 49%
Hemolytic activity (sheep red blood cells): below 18%
MBC [5]: 50 µM
IC50 [5]: 12.5 to 25 µM
MBC [6]: 50 µM
IC50 [6]: < 25 µM
MBC [7]: 50 µM
IC50 [7]: 25 to 50 µM

CCOc1cc(/C=N/N=C(N)N)ccc1OCc1ccc(Cl)cc1 [SM5]
MBC [1]: 25 µM (≈ 8.67 µg/mL)
MBC ([1]; Salmonella enterica): 25 µM (≈ 8.67 µg/mL)
MBC (Salmonella Enteritidis): 50 µM (≈ 17.3 µg/mL)
MBC (Salmonella Heidelberg): 50 µM (≈ 17.3 µg/mL)
MBC (Salmonella Javiana): 50 µM (≈ 17.3 µg/mL)
MBC (Salmonella Saint-Paul): 50 µM (≈ 17.3 µg/mL)
SM MBCcombined ([2]; SM combined with cefeprime): 25^c μM
SM MBCcombined ([2]; SM combined with cefotaxime): 25^c μM
SM MBCcombined ([2]; SM combined with ciprofloxacin at the concentration in the cell before): 20^b μM
SM MBCcombined ([2]; SM combined with erythromycin): 25^c μM
SM MBCcombined ([2]; SM combined with meropenem): 25^c μM
SM MBCcombined [2, 8]: 25^c μM
MBC [2]: 25 µM
MBC on biofilm embedded Salmonella [3]: 25 µM (≈ 8.67 µg/mL)
Resistance development of S. Typhimurium (S. Typhimurium): no resistance was observed
Increase in permeability (crystal violet uptake) ([4]; compared to 1% DMSO-treated cells): 2.32 fold
Hemolytic activity (chicken red blood cells): lower than 1%
Hemolytic activity (sheep red blood cells): lower than 1%
MBC [5]: 12.5 µM (≈ 4.34 µg/mL)
IC50 [5]: 6.25 to 12.5 µM
MBC [6]: 25 µM (≈ 8.67 µg/mL)
IC50 [6]: < 12.5 µM
MBC [7]: 50 µM (≈ 17.3 µg/mL)
IC50 [7]: < 25 µM
